Source: patent US7598258B2, “Quinoline derivatives and quinazoline derivatives inhibiting autophosphorylation of macrophage colony stimulating factor receptor” (Kirin Beer Kabushiki Kaisha, priority 2002, dated 2009)

Target: T1, Human KDR (Homo sapiens, UniProt P35968)
T1 construct: expressed in transfected cells; host or cells: NIH3T3 cells (mouse fibroblasts)
Assay: Inhibition of KDR phosphorylation in human KDR-transfected NIH3T3 cells (ELISA);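 for Selection ratio (KDR phosphorylation IC50 / c-fms phosphorylation IC50): class 2 means ratio of 10 or more and class 3 means 50 or more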
Assay type: cell-based
Conditions: for Selection ratio (KDR phosphorylation IC50 / c-fms phosphorylation IC50): class 0-3; for IC50: human KDR-transfected NIH3T3 cells, VEGF 100 ng/ml, ELISA, read-out: KDR phosphorylation 50% inhibitory concentration (IC50)
Procedure, shortened: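 NIH3T3 cells transfected with human KDR, in 0.1% FCS medium, treated with compound 1 hr at 37° C, then stimulated with VEGF 100 ng/ml for 2 min. Lysate KDR phosphorylation measured by anti-phosphotyrosine capture/anti-KDR ELISA (A450); IC50 from inhibition normalized between VEGF-stimulated and unstimulated wells.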

T1 sequence (P35968 20-1356): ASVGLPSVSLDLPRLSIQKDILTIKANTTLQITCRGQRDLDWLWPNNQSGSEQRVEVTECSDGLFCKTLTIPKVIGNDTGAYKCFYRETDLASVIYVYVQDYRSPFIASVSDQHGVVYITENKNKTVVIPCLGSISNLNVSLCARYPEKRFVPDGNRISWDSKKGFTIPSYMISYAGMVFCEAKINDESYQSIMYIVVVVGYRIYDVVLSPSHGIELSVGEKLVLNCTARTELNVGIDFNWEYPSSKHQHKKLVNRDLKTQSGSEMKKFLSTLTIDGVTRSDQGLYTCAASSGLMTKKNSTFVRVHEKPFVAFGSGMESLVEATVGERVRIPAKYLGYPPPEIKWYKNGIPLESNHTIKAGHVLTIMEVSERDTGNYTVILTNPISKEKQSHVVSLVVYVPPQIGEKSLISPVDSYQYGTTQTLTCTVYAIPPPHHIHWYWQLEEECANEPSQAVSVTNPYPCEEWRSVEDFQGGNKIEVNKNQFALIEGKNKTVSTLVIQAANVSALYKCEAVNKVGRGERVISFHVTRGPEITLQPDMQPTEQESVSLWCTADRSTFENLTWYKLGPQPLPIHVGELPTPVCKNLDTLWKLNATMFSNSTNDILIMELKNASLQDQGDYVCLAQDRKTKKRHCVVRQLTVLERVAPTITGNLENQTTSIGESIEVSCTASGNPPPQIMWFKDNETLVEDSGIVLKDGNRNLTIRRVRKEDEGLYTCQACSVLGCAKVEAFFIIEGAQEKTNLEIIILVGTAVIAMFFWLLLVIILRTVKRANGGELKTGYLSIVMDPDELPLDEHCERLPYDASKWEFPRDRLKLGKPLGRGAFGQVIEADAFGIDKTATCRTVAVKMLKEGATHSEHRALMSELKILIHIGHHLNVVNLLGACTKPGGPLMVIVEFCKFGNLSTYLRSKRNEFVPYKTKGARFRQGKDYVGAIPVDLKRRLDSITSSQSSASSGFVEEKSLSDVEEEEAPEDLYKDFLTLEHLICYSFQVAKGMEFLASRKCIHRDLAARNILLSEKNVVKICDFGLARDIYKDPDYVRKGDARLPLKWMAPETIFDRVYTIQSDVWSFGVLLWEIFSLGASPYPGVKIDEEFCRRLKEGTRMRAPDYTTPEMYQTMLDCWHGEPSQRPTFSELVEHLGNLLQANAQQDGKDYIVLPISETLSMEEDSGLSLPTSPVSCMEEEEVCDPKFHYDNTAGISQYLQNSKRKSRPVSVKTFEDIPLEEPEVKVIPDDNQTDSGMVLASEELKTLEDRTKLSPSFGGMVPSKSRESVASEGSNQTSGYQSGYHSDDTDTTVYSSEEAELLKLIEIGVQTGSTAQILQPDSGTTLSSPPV

| Compound | Selection ratio (KDR phosphorylation IC50 / c-fms phosphorylation IC50) | IC50 [nM] |
| --- | --- | --- |
| COc1cc2nccc(Oc3ccc(NC(=O)NC(C)c4nccs4)c(C(F)(F)F)c3)c2cc1OC (stereo not drawn) [Example 83, N-[4-[(6,7-Dimethoxy-4-quinolyl)oxy]-2-(trifluoromethyl)phenyl]-N′-[1-(1,3-thiazol-2-yl)ethyl]urea] | 0 (KDR phosphorylation 50% inhibitory concentration [μM]/c-fms phosphorylation 50% inhibitory concentration [μM] was less than 5) | 7.9 |
| COc1cc2nccc(Oc3ccc(NC(=O)N[C@H](C)c4nccs4)c(C(F)(F)F)c3)c2cc1OC [Example 85, N-[4-[(6,7-Dimethoxy-4-quinolyl)oxy]-2-(trifluoromethyl)phenyl]-N′-[(1R)-1-(1,3-thiazol-2-yl)ethyl]urea] | 0 (KDR phosphorylation 50% inhibitory concentration [μM]/c-fms phosphorylation 50% inhibitory concentration [μM] was less than 5) | 21.6 |
| COc1cc2nccc(Oc3ccc(NC(=O)NC(C)c4nc(C)cs4)c(F)c3)c2cc1OC (stereo not drawn) [Example 88, N-{4-[(6,7-Dimethoxy-4-quinolyl)oxy]-2-fluorophenyl}-N′-[1-(4-methyl-1,3-thiazol-2-yl)ethyl]urea] | 0 (KDR phosphorylation 50% inhibitory concentration [μM]/c-fms phosphorylation 50% inhibitory concentration [μM] was less than 5) | 8.7 |
| COc1cc(Oc2ccnc3cc(OC)c(OC)cc23)ccc1NC(=O)NC(C)c1nc(C)cs1 (stereo not drawn) [Example 90, N-{4-[(6,7-Dimethoxy-4-quinolyl)oxy]-2-methoxyphenyl}-N′-[1-(4-methyl-1,3-thiazol-2-yl)ethyl]urea] | 2 (when the value was 10 or more) | 111 |
| COc1cc2nccc(Oc3ccc(NC(=O)NC(C)c4nc(C)cs4)cc3)c2cc1OC (stereo not drawn) [Example 91, N-{4-[(6,7-Dimethoxy-4-quinolyl)oxy]phenyl}-N′-[1-(4-methyl-1,3-thiazol-2-yl)ethyl]urea] | 1 (when the value was 5 or more) | 28.8 |
| COc1cc2nccc(Oc3ccc(NC(=O)NC(C)c4nc(C)cs4)c(C(F)(F)F)c3)c2cc1OC (stereo not drawn) [Example 92, N-[4-[(6,7-Dimethoxy-4-quinolyl)oxy]-2-(trifluoromethyl)phenyl]-N′-[1-(4-methyl-1,3-thiazol-2-yl)ethyl]urea] | 0 (KDR phosphorylation 50% inhibitory concentration [μM]/c-fms phosphorylation 50% inhibitory concentration [μM] was less than 5) | 4.3 |
| COc1cc2nccc(Oc3cc(C)c(NC(=O)NC(C)c4nc(C)cs4)cc3C)c2cc1OC (stereo not drawn) [Example 93, N-{4-[(6,7-Dimethoxy-4-quinolyl)oxy]-2,5-dimethylphenyl}-N′-[1-(4-methyl-1,3-thiazol-2-yl)ethyl]urea] | 1 (when the value was 5 or more) | 268 |
| COc1cc(Oc2ccnc3cc(OC)c(OC)cc23)ccc1NC(=O)NC(C)c1nc(C)c(C)s1 (stereo not drawn) [Example 99, N-{4-[(6,7-Dimethoxy-4-quinolyl)oxy]-2-methoxyphenyl}-N′-[1-(4,5-dimethyl-1,3-thiazol-2-yl)ethyl]urea] | 2 (when the value was 10 or more) | 292 |
| COc1cc2nccc(Oc3ccc(NC(=O)NC(C)c4ncc(C)s4)cc3)c2cc1OC (stereo not drawn) [Example 100, N-{4-[(6,7-Dimethoxy-4-quinolyl)oxy]phenyl}-N′-[1-(5-methyl-1,3-thiazol-2-yl)ethyl]urea] | 2 (when the value was 10 or more) | 311 |
| COc1cc2nccc(Oc3ccc(NC(=O)NC(C)c4ncc(C)s4)c(F)c3)c2cc1OC (stereo not drawn) [Example 101, N-{4-[(6,7-Dimethoxy-4-quinolyl)oxy]-2-fluorophenyl}-N′-[1-(5-methyl-1,3-thiazol-2-yl)ethyl]urea] | 2 (when the value was 10 or more) | 239 |
| COc1cc2nccc(Oc3ccc(NC(=O)NC(C)c4ncc(C)s4)c(C)c3)c2cc1OC (stereo not drawn) [Example 103, N-{4-[(6,7-Dimethoxy-4-quinolyl)oxy]-2-methylphenyl}-N′-[1-(5-methyl-1,3-thiazol-2-yl)ethyl]urea] | 0 (KDR phosphorylation 50% inhibitory concentration [μM]/c-fms phosphorylation 50% inhibitory concentration [μM] was less than 5) | 90.9 |
| COc1cc2nccc(Oc3ccc(NC(=O)NC(C)c4ncc(C)s4)c(C(F)(F)F)c3)c2cc1OC (stereo not drawn) [Example 104, N-[4-[(6,7-Dimethoxy-4-quinolyl)oxy]-2-(trifluoromethyl)phenyl]-N′-[1-(5-methyl-1,3-thiazol-2-yl)ethyl]urea] | 0 (KDR phosphorylation 50% inhibitory concentration [μM]/c-fms phosphorylation 50% inhibitory concentration [μM] was less than 5) | 36.1 |

Other lines, results leading:

| Selection ratio (KDR phosphorylation IC50 / c-fms phosphorylation IC50) | IC50 [nM] | Compound |
| --- | --- | --- |
| 2 (when the value was 10 or more) | 101 | COc1cc2nccc(Oc3ccc(NC(=O)NC(C)c4nccs4)cc3)c2cc1OC (stereo not drawn) [Example 77, N-{4-[(6,7-Dimethoxy-4-quinolyl)oxy]phenyl}-N′-[1-(1,3-thiazol-2-yl)ethyl]urea] |
| 2 (when the value was 10 or more) | 53.9 | COc1cc2nccc(Oc3ccc(NC(=O)N[C@@H](C)c4nccs4)cc3)c2cc1OC [Example 78, N-{4-[(6,7-Dimethoxy-4-quinolyl)oxy]phenyl}-N′-[(S)-1-(1,3-thiazol-2-yl)ethyl]urea] |
| 2 (when the value was 10 or more) | 95.2 | COc1cc2nccc(Oc3ccc(NC(=O)N[C@H](C)c4nccs4)cc3)c2cc1OC [Example 79, N-{4-[(6,7-Dimethoxy-4-quinolyl)oxy]phenyl}-N′-[(1R)-1-(1,3-thiazol-2-yl)ethyl]urea] |
| 3 (when the value was 50 or more) | 526 | COc1cc2nccc(Oc3ccc(NC(=O)NC(C)c4nccs4)cc3OC)c2cc1OC (stereo not drawn) [Example 80, N-{4-[(6,7-Dimethoxy-4-quinolyl)oxy]-3-methoxyphenyl}-N′-[1-(1,3-thiazol-2-yl)ethyl]urea] |
| 3 (when the value was 50 or more) | 1050 | COc1cc2nccc(Oc3ccc(NC(=O)N[C@@H](C)c4nccs4)cc3OC)c2cc1OC [Example 81, N-{4-[(6,7-Dimethoxy-4-quinolyl)oxy]-3-methoxyphenyl}-N′-[(1S)-1-(1,3-thiazol-2-yl)ethyl]urea] |
| 3 (when the value was 50 or more) | 650 | COc1cc2nccc(Oc3ccc(NC(=O)N[C@H](C)c4nccs4)cc3OC)c2cc1OC [Example 82, N-{4-[(6,7-Dimethoxy-4-quinolyl)oxy]-3-methoxyphenyl}-N′-[(1R)-1-(1,3-thiazol-2-yl)ethyl]urea] |
| 3 (when the value was 50 or more) | 661 | COc1cc2nccc(Oc3ccc(NC(=O)N[C@@H](C)c4nccs4)c(C(F)(F)F)c3)c2cc1OC [Example 84, N-[4-[(6,7-Dimethoxy-4-quinolyl)oxy]-2-(trifluoromethyl)phenyl]-N′-[(1S)-1-(1,3-thiazol-2-yl)ethyl]urea] |
| 2 (when the value was 10 or more) | 208 | COc1cc2nccc(Oc3cc(C)c(NC(=O)N[C@@H](C)c4nccs4)cc3C)c2cc1OC [Example 86, N-{4-[(6,7-Dimethoxy-4-quinolyl)oxy]-2,5-dimethylphenyl}-N′-[(1S)-1-(1,3-thiazol-2-yl)ethyl]urea] |
| 2 (when the value was 10 or more) | 273 | COc1cc2nccc(Oc3cc(C)c(NC(=O)N[C@H](C)c4nccs4)cc3C)c2cc1OC [Example 87, N-{4-[(6,7-Dimethoxy-4-quinolyl)oxy]-2,5-dimethylphenyl}-N′-[(1R)-1-(1,3-thiazol-2-yl)ethyl]urea] |
| 1 (when the value was 5 or more) | 17.4 | COc1cc2nccc(Oc3ccc(NC(=O)NC(C)c4nc(C)cs4)cc3F)c2cc1OC (stereo not drawn) [Example 89, N-{4-[(6,7-Dimethoxy-4-quinolyl)oxy]-3-fluorophenyl}-N′-[1-(4-methyl-1,3-thiazol-2-yl)ethyl]urea] |
| 2 (when the value was 10 or more) | 219 | COc1cc2nccc(Oc3ccc(NC(=O)NC(C)c4ncc(C)s4)cc3F)c2cc1OC (stereo not drawn) [Example 102, N-{4-[(6,7-Dimethoxy-4-quinolyl)oxy]-3-fluorophenyl}-N′-[1-(5-methyl-1,3-thiazol-2-yl)ethyl]urea] |
| 2 (when the value was 10 or more) | 310 | COc1cc(Oc2ccnc3cc(OC)c(OC)cc23)ccc1NC(=O)NC(C)c1ncc(C)s1 (stereo not drawn) [Example 105, N-{4-[(6,7-Dimethoxy-4-quinolyl)oxy]-2-methoxyphenyl}-N′-[1-(5-methyl-1,3-thiazol-2-yl)ethyl]urea] |
